The source of these data is patent US20240208912A1 (Mirati Therapeutics, Inc., priority 2021, published 2024).

The test system of assay [1] is HCT116 homozygous MTAP knockout cells. As to the kind of experiment: Proliferation assay (CellTiter-Glo, 10 days) in HCT116 homozygous MTAP knockout cells. The class given is cell-based. The conditions noted are these: CellTiter-Glo after 10 days of treatment, read-out: Proliferation IC50 (nM) HCT116 MTAP_KO. The method, boiled down:
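CellTiter-Glo viability read on day 11 gives a 10-day IC50. Dosing began one day after seeding, with a 1:10 split into fresh drug-containing medium on day 6. Cells are HCT116 lacking both MTAP alleles via CRISPR/Cas9, run alongside the parental line.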

For assay [2], the system named is PRMT5-dependent Symmetric Di-methyl Arginine signal in HCT116 homozygous MTAP Knockout cells. As to the kind of experiment: SYM11 In-Cell Western in HCT116 homozygous MTAP knockout cells. The assay is classed as cell-based. As to the method:
HCT116 cells were genetically engineered to knock out the function of both MTAP alleles using a CRISPR/Cas9 system and an sgRNA targeting the MTAP gene. Following Cas9/MTAP sgRNA transduction, clones were screened to confirm that each allele of the MTAP gene had been inactivated (i.e., homozygous MTAP knock out) creating an MTAP-deficient cell.
Control samples were analyzed in parallel.
Briefly, on Day 0, 2,000 HCT116 parental or HCT116 homozygous MTAP knockout cells were seeded in 96 well plates in McCoy's 5A supplemented with 10% fetal bovine serum and pen/strep and the cells were incubated overnight at 37° C. plus 5% CO2. The following day, cells were treated with DMSO vehicle control or a dose response of PRMT5 inhibitors, and incubated at 37° C. plus 5% CO^2 for four days.
After 4 days of treatment, the cells were fixed by adding 50 μl of 4% paraformaldehyde solution to each well and the cells were incubated for 20 min at room temperature. The paraformaldehyde solution was removed, 150 μl of ice-cold methanol was added and the plate was placed −20° C. for 10 minutes. The methanol was removed, 150 μl of Odyssey Blocking buffer+0.05% Tween20 was added and the plate was incubated at room temperature with shaking for one hour.
The primary SYM11 antibody solution was removed by aspiration and the wells were washed three consecutive times with phosphate buffered saline containing 0.1% Tween-20 (PBST).
The secondary antibody solution was removed by aspiration and the wells were washed three consecutive times with PBST.
The SYM11 signal and the DRAQ5 signal were quantified using a Li-Cor Odyssey machine reading at […], respectively. The SYM11/DRAQ5 ratio was used to calculate the inhibition of Symmetric Dimethyl Arginine as percent of DMSO control.

A further assay addresses T1, PRMT5/MEP50 complex (Homo sapiens, UniProt O14744).
T1 construct: purchased Reaction Biology Corporation
Kind of assay: PRMT5:MEP50 HotSpot Assay (full-length histone H2A substrate, plus and minus MTA). The class given is biochemical. The conditions noted are these: IC50 + 2 μM MTA, in the presence of 2 μM MTA. The method, boiled down: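 Tritiated product on full-length recombinant H2A was counted by scintillation after the stopped reaction was captured on filter paper. Substrate is histone H2A; conditions include plus and minus MTA.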

Where [3] appears, read: 4 days of treatment, SYM11/DRAQ5 ratio as percent of DMSO control, read-out: In-cell-Western (SYM11) IC50 (nM) HCT116 MTAP_KO.
Where [4] appears, read: Homo sapiens, HCT-116, 96 h, 4 days of treatment, SYM11/DRAQ5 ratio as percent of DMSO control, read-out: In-cell-Western (SYM11) IC50 (nM) HCT116 MTAP_KO.
Where [5] appears, read: read-out: In-cell-Western (SYM11) IC50 (nM) HCT116 MTAP_KO, 4 days of treatment, SYM11/DRAQ5 ratio as percent of DMSO control.

Read-outs that look alike come from different tables or passages of the source.

T1 sequence (O14744 2-637 limits assumed): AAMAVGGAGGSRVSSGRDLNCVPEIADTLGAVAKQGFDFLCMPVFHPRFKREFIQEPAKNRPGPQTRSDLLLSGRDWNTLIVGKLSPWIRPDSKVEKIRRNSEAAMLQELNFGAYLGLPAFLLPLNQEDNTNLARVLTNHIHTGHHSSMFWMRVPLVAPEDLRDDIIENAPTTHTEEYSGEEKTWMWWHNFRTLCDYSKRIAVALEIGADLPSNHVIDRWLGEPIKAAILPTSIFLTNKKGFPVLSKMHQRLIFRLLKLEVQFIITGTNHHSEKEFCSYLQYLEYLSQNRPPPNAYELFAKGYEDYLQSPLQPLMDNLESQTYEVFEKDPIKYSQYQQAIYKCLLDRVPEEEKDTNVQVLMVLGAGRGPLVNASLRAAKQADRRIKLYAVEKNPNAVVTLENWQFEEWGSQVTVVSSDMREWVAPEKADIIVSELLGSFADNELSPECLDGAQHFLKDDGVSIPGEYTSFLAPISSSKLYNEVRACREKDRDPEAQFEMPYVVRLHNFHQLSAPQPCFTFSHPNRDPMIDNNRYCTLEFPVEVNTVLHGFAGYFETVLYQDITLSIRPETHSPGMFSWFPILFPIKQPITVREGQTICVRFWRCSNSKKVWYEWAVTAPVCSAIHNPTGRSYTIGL
T1 sequence (Q9BQA1 2-342 partner limits assumed): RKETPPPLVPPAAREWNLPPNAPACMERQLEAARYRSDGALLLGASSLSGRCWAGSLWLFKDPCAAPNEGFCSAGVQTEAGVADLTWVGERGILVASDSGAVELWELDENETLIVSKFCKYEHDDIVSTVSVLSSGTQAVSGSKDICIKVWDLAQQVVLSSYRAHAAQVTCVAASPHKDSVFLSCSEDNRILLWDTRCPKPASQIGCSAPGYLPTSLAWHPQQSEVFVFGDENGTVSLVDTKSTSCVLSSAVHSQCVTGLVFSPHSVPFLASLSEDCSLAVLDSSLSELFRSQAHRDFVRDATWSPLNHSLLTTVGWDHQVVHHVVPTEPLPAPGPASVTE

In the case of `Cc1cc(-c2cnn(C)c2-c2c(F)c(Cl)c3ccccc3c2C#N)cc2c(CN)n[nH]c(=O)c12` (atropisomer, axis not shown; (M)) [Example 16-18, (M)-2-[4-[4-(aminomethyl)-8-methyl-1-oxo-2H-phthalazin-6-yl]-2-methyl-pyrazol-3-yl]-4-chloro-3-fluoro-naphthalene-1-carbonitrile], the IC50 in assay [1] is 19 nM; in assay [2] (setting [3]), 13 nM.
As to `Cn1ncc(-c2ccc3c(=O)[nH]nc(CN)c3c2)c1-c1c(C#N)sc2ccccc12` [Example 4-266, 3-[4-[4-(aminomethyl)-1-oxo-2H-phthalazin-6-yl]-2-methyl-pyrazol-3-yl]benzothiophene-2-carbonitrile], the IC50 in assay [1] (Homo sapiens, HCT-116, 240 h) was determined as 312 nM; in assay [2] (setting [4]), 324 nM; at PRMT5/MEP50 complex it was 507 nM.
Regarding `Cn1ncc(-c2ccc3c(=O)[nH]nc(CN)c3c2)c1-c1ccc2ccc(Cl)cc2c1C#N` [Example 4-258, 2-[4-[4-(aminomethyl)-1-oxo-2H-phthalazin-6-yl]-2-methyl-pyrazol-3-yl]-7-chloro-naphthalene-1-carbonitrile], the IC50 in assay [1] (Homo sapiens, HCT-116, 240 h) was 89 nM; in assay [2] (setting [4]), 28 nM.
Regarding `Cn1ncc(-c2cc(Cl)c3c(=O)[nH]nc(CN)c3c2)c1-c1c(F)c(Cl)cc(OC2CC2)c1C#N` [Example 10-25, 2-[4-[4-(aminomethyl)-8-chloro-1-oxo-2H-phthalazin-6-yl]-2-methyl-pyrazol-3-yl]-4-chloro-6-(cyclopropoxy)-3-fluoro-benzonitrile], the IC50 in assay [1] (Homo sapiens, HCT-116, 240 h) worked out at 30 nM; in assay [2] (setting [4]) it was 8 nM.
For the compound `Cc1cc(-c2cnn(C)c2-c2c(F)c(Cl)c3ccccc3c2C#N)cc2c(CN)n[nH]c(=O)c12` (atropisomer, axis not shown; (P)) [Example 16-17, (P)-2-[4-[4-(aminomethyl)-8-methyl-1-oxo-2H-phthalazin-6-yl]-2-methyl-pyrazol-3-yl]-4-chloro-3-fluoro-naphthalene-1-carbonitrile], the IC50 in assay [1] stood at 285 nM; in assay [2] (setting [3]) it was 129 nM.
As to `Cc1c(F)c(-c2c(-c3cc(Cl)c4c(=O)[nH]nc(CN)c4c3)cnn2C)c(C#N)c2ncc(Cl)cc12` (atropisomer, axis not shown; (M)) [Example 16-98, (M)-7-(4-(4-(aminomethyl)-8-chloro-1-oxo-1,2-dihydrophthalazin-6-yl)-1-methyl-1H-pyrazol-5-yl)-3-chloro-6-fluoro-5-methylquinoline-8-carbonitrile], the results for the IC50 (in assay [2] (setting [4]); on PRMT5/MEP50 complex) were 25 nM and 552 nM, respectively.
With `Cn1ncc(-c2ccc3c(=O)[nH]nc(CN)c3c2)c1-c1c(Cl)cc2ccccc2c1Cl` [Example 4-259, 4-(aminomethyl)-6-[5-(1,3-dichloro-2-naphthyl)-1-methyl-pyrazol-4-yl]-2H-phthalazin-1-one], the IC50 turned out to be 837 nM in assay [1] (Homo sapiens, HCT-116, 240 h) and 97 nM in assay [2] (setting [4]).
For the compound `N#Cc1c(OC2CC2)cc(Cl)c(F)c1-c1c(-c2ccc3c(=O)[nH]nc(CN)c3c2)cnn1C(F)(F)F` (atropisomer, axis not shown; (P)) [Example 16-119, (P)-2-(4-(4-(aminomethyl)-1-oxo-1,2-dihydrophthalazin-6-yl)-1-(trifluoromethyl)-1H-pyrazol-5-yl)-4-chloro-6-cyclopropoxy-3-fluorobenzonitrile], the results for the IC50 (in assay [2] (setting [3]); on PRMT5/MEP50 complex) were 1000 nM and 489 nM, respectively.
In the case of `Cn1ncc(-c2ccc3c(=O)[nH]nc(CN)c3c2)c1-c1c(F)c(Cl)cc(OC2CC2)c1C#N` [Example 16-7, 2-(4-(4-(aminomethyl)-1-oxo-1,2-dihydrophthalazin-6-yl)-1-methyl-1H-pyrazol-5-yl)-4-chloro-6-cyclopropoxy-3-fluorobenzonitrile], the IC50 in assay [2] (setting [5]) came out at 1000 nM.
Regarding `Cn1ncc(-c2ccc3c(=O)[nH]nc(CN)c3c2)c1-c1ccc2ncc(F)cc2c1C#N` [Example 4-264, 6-[4-[4-(aminomethyl)-1-oxo-2H-phthalazin-6-yl]-2-methyl-pyrazol-3-yl]-3-fluoro-quinoline-5-carbonitrile], the IC50 worked out at 83 nM in assay [1] (Homo sapiens, HCT-116, 240 h) and 23 nM in assay [2] (setting [4]).
For `N#Cc1c(OC2CC2)cc(Cl)c(F)c1-c1c(-c2ccc3c(=O)[nH]nc(CN)c3c2)cnn1C(F)(F)F` (atropisomer, axis not shown; (M)) [Example 16-120, (M)-2-(4-(4-(aminomethyl)-1-oxo-1,2-dihydrophthalazin-6-yl)-1-(trifluoromethyl)-1H-pyrazol-5-yl)-4-chloro-6-cyclopropoxy-3-fluorobenzonitrile], the IC50 was determined as 79 nM in assay [2] (setting [3]) and 257 nM at PRMT5/MEP50 complex.
On to `Cn1ncc(-c2ccc3c(=O)[nH]nc(CN)c3c2)c1-c1cccc2cccc(C#N)c12` [Example 4-265, 8-[4-[4-(aminomethyl)-1-oxo-2H-phthalazin-6-yl]-2-methyl-pyrazol-3-yl]naphthalene-1-carbonitrile], for which the IC50 in assay [1] (Homo sapiens, HCT-116, 240 h) was 1650 nM; in assay [2] (setting [4]), 1000 nM.
Consider `Cc1ccc(-c2c(-c3ccc4c(=O)[nH]nc(CN)c4c3)cnn2C)c(C#N)c1` [Example 4-106, 2-(4-(4-(aminomethyl)-1-oxo-1,2-dihydrophthalazin-6-yl)-1-methyl-1H-pyrazol-5-yl)-5-methylbenzonitrile], for which the IC50 in assay [2] (setting [4]) was determined as 26 nM.
Consider `Cc1cc(-c2cnn(C)c2-c2c(C#N)cc3ccccc3c2Cl)cc2c(CN)n[nH]c(=O)c12` [Example 10-26, 3-[4-[4-(aminomethyl)-8-methyl-1-oxo-2H-phthalazin-6-yl]-2-methyl-pyrazol-3-yl]-4-chloro-naphthalene-2-carbonitrile], for which the IC50 in assay [1] (Homo sapiens, HCT-116, 240 h) was found to be 83 nM; in assay [2] (setting [4]) it was 35 nM.
On to `Cn1ncc(-c2ccc3c(=O)[nH]nc(CN)c3c2)c1-c1c(F)cc2ccccc2c1C#N` [Example 4-203, 2-(4-(4-(aminomethyl)-1-oxo-1,2-dibydrophthalazin-6-yl)-1-methyl-1H-pyrazol-5-yl)-3-fluoro-1-naphthonitrile], for which, in assay [2] (setting [3]), the IC50 was 2 nM.
Regarding `Cn1ncc(-c2ccc3c(=O)[nH]nc(CN)c3c2)c1-c1c(F)c(Cl)cc(OC2CC2)c1C#N` [Example 16-8, 2-(4-(4-(aminomethyl)-1-oxo-1,2-dihydrophthalazin-6-yl)-1-methyl-1H-pyrazol-5-yl)-4-chloro-6-cyclopropoxy-3-fluorobenzonitrile], the IC50 in assay [2] (setting [5]) is 0.8 nM.
As to `Cc1c(F)c(-c2c(-c3cc(C)c4c(=O)[nH]nc(CN)c4c3)cnn2C)c(C#N)c2ncc(Cl)cc12` (single isomer, unassigned) [Example 16-96, (M)-7-(4-(4-(aminomethyl)-8-methyl-1-oxo-1,2-dihydrophthalazin-6-yl)-1-methyl-1H-pyrazol-5-yl)-3-chloro-6-fluoro-5-methylquinoline-8-carbonitrile], the IC50 in assay [2] (setting [4]) is 22 nM; on PRMT5/MEP50 complex, 5940 nM.
In the case of `CCc1cccc(-c2c(-c3cc4c(CN)n[nH]c(=O)c4cn3)cnn2C)c1C#N` [Example 17-1, 2-[4-[1-(aminomethyl)-4-oxo-3H-pyrido[3,4-d]pyridazin-7-yl]-2-methyl-pyrazol-3-yl]-6-ethyl-benzonitrile], the IC50 in assay [1] (Homo sapiens, HCT-116, 240 h) was 3870 nM; in assay [2] (setting [4]), 538 nM.
For `Cn1ncc(-c2ccc3c(=O)[nH]nc(CN)c3c2F)c1-c1ccc2ccccc2c1C#N` [Example 17-2, 2-[4-[4-(aminomethyl)-5-fluoro-1-oxo-2H-phthalazin-6-yl]-2-methyl-pyrazol-3-yl]naphthalene-1-carbonitrile], in that order: 432 nM and 80 nM.
